Literature values in patent US20110021553A1, “IMMUNOSUPPRESSIVE MACROLIDE POWDER FOR ORAL SUSPENSION” (priority 2008, published 2011).

Legend:
[1] = test system: skin mast cells, basophils and eosinophils; settings: in vitro
[2] = test system: albumin and α1-glicoprotein; settings: mainly albumin and α1-glicoprotein
[3] = not given; remark: listed apart in the source
[4] = main metabolites via CYP3A4

SMILES | solubility in organic solvents (methanol, ethanol, acetone, ethyl acetate, chloroform and diethyl ether) | solubility in water (water) | release of mediators [1] | combination to proteins [2] [%] | excreted in unaltered state through urine ([3]; human, in vivo) | elimination through bile ([3]; main channel of elimination) | Bioavailability ([3]; oral, reduced with the presence of food) | time to concentration in steady state ([3]; orally 0.3 mg/Kg/day, liver transplant patients, majority of the cases) [days] | immunosuppressive effect [4]
C=CC[C@@H]1/C=C(\C)C[C@H](C)C[C@H](OC)[C@H]2O[C@@](O)(C(=O)C(=O)N3CCCC[C@H]3C(=O)O[C@H](/C(C)=C/[C@@H]3CC[C@@H](O)[C@H](OC)C3)[C@H](C)[C@@H](O)CC1=O)[C@H](C)C[C@@H]2OC (relative stereo) [Tacrolimus, [3S-[3R*[E(1S*,3S*,4S*)], 4S*,5R*,8S*,9E,12R*,14R*,15S*,16R*,18S*,19S*,26aR*]]-5,6,8,11,12,13,14,15,16,17,18,19,24,25,26,26a-hexadecahydro-5,19-dihydroxy-3-[2-(4-hidroxy-3-metoxy-cyclohexyl)-1-metyletenyl]-14,16-dimethoxy-4,10,12,18-tetramethyl-8-(2-propenyl)-15,19-epoxy-3H-pyrido [2,1-c] [1,4] oxazacyclotricosine-1,7,20,21 (4H, 23H)-tetraone, monohydrate] | soluble | insoluble | decreases the release of the mediators | 99 | less than 1% | more than 90% | 4-89% | 3 | –
C=CCC1C=C(C)CC(C)CC(OC)C2OC(O)(C(=O)C(=O)N3CCCCC3C(=O)OC(C(C)=CC3CCC(O)C(OC)C3)C(C)C(O)CC1=O)C(C)CC2O (stereo not shown) [13-O-desmethyl tacrolimus] | – | – | – | – | – | – | – | – | neither of which have a measurable immunosuppresive effect
C=CCC1C=C(C)CC(C)CC(O)C2OC(O)(C(=O)C(=O)N3CCCCC3C(=O)OC(C(C)=CC3CCC(O)C(OC)C3)C(C)C(O)CC1=O)C(C)CC2OC (stereo not shown) [15-O-desmethyl tacrolimus] | – | – | – | – | – | – | – | – | neither of which have a measurable immunosuppresive effect
